The text below walks through data of patent publication US9675617B2, “Tetrahydrofolates in combination with EGFR-inhibitors” (ISOFOL MEDICAL AB, priority 2012, dated 2017).

For data set [1] the following is noted: in the body; no source or species given; cited from earlier work.
The next data set concerns LoVo tumor cells. Briefly: Anti-tumoral efficacy in the colorectal adenocarcinoma xenograft model LoVo. The format is in vivo, NCr nu/nu mice. The procedure:
Study Design: A total of 50 female NCr nu/nu mice (10 per group) at the age of 8-12 weeks were injected with 1×10^7 LoVo tumor cells in 50% Matrigel sc in flank. After seven days they were administered intraperitoneal injections according to the schedule in table 2. Animals were monitored individually. The endpoint of the experiment was a tumor weight of 1000 mm^3 or 75 days, whichever came first. Responders could be followed longer. When the endpoint was reached, the animals were euthanized. Body weight (g) and tumor volume (mm^3) was measured on days 1, 2, 3, 4, 5, 7, 11, 14, 18, 21, 25, 28, 32, 35, 39, 42, 46, 49, 53, 56, 60, 63, 67, 70 and 74.

Regarding `Nc1nc2c(c(=O)[nH]1)N1CN(c3ccc(C(=O)N[C@@H](CCC(=O)O)C(=O)O)cc3)CC1CN2` (stereo partly shown) [methylene-THF, 5,10-methylene tetrahydrofolate], the half life entry in data set [1] is listed as “approximately 20 min”. Moreover, the “Median tumor volume over time (FIG. 2), in words” value in the data set on LoVo tumor cells (LoVo xenograft, days 1-74) was “enhances the anti-tumor growth effect of cetuximab”. The “Time to endpoint, Kaplan-Meier plot (FIG. 3), in words” value in the data set with LoVo tumor cells (endpoint: tumor weight of 1000 mm^3 or 75 days) was “enhancing the beneficial effect of cetuximab”.
`CN1c2c(nc(N)[nH]c2=O)NCC1CNc1ccc(C(=O)N[C@@H](CCC(=O)O)C(=O)O)cc1` (stereo partly shown) [methyl-THF, 5-methyltetrahydrofolate]: the half life entry in data set [1] is given as “approximately 5 hours”.
